In US9029092B2, “Solution phase homogeneous assays” (Beckman Coulter, Inc., priority 2009, dated 2015):
Where “and” joins values, the source holds several entries; their conditions need not be identical. Equal entries are not always repeated.

Assays:
biotinylated HRP = experiment: Model system for selection of SSIA (AK1/streptavidin BSA microparticles + biotinylated HRP); assay type: biochemical, horseradish; conditions: SSIA 100 μM final
Method in brief: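 Streptavidin/AK1/biotin-BSA M280 microparticles mixed with candidate SSIA (100 μM final) and Btn-HRP at 0, 1, 10, 100 or 250 ng/mL, with unlabeled HRP to 500 ng/mL total HRP. After 30 min at 37° C, trigger solution was added and light intensity recorded on a modified DxI analyzer.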

PSA = experiment: Assay of PSA with dextran scaffold chemiluminescent-labeled sbp with and without SSIA; assay type: biochemical, human; conditions: ascorbic acid as SSIA
Protocol: In this example, one member of a specific binding pair of monoclonal antibodies for PSA is conjugated to a dextran molecule coupled with AK1, as described in Example 10 below, except the antibody is thiolated and covalently-linked to AK11-labeled and maleimide-activated dextran. A second monoclonal PSA antibody was conjugated to HRP, as described above and provided in an aqueous solution at either 0.5 μg/ml, 0.1 μg/ml or 0.03 μg/ml as indicated in the tables below. The assays were performed by placing 25 μl of sample in each of two reaction vessels. To the sample in the first reaction vessel, 25 μl of Ab1 solution, 25 μl of water, 25 μl of Ab2 solution was added and incubated for 15 minutes. […] Each sample was analyzed according to the above assay method in triplicate. […] A ratio of signal to noise (S/S0) was calculated at each concentration value. […] Samples of known concentration were prepared as described previously. Each sample was analyzed according to the above method in triplicate.

TnI = experiment: Assays utilizing various SSIA in TnI assay; assay type: biochemical; conditions: for Signal/Noise S1/S0: calibrator S1; for Signal/Noise S2/S0: calibrator S2; for Signal/Noise S3/S0: calibrator S3; for Signal/Noise S4/S0: calibrator S4; for Signal/Noise S5/S0: calibrator S5; for Signal/Noise S6/S0: calibrator S6
Protocol: In a reaction tube, 400 uL of TnI M6 antibody-HRP conjugate at 0.5 ug/mL in buffered aqueous solution at pH. 8.0 (100 mM Tris, 150 mM NaCl, 0.1 mM EDTA, 0.2% Tween-20 and 1% BSA), 400 uL of AK1˜Dex70/31˜Streptavidin (fraction 1) 2:1 SA/Ab at 2 ug/mL Ab also in buffered aqueous solution at pH 8.0, and 400 uL of calibrator standard solution containing the TnI analyte at a known concentration. One tube was prepared for each calibrator concentration. […] Next, 25 uL of each antioxidant as a concentrated solution of 2 mM, 1 mM or 0.5 mM was pipetted into the plate wells using a repeater pipette. The plates were rotated for 10 seconds to mix and incubated between 5 to 33 minutes. Detection was performed with a SpectraMax L injection plate luminometer.

[1] = SSIA final concentration 125 uM
[2] = SSIA final concentration 250 uM
[3] = SSIA final concentration 500 uM

SMILES: O=C1O[C@H]([C@@H](O)CO)C(O)=C1O [Ascorbic Acid]
- light intensity, BTN-HRP0 (biotinylated HRP; Btn-HRP 0 ng/mL, total HRP 500 ng/mL): 97 and 151
- S1/S0 (biotinylated HRP; Btn-HRP 1 ng/mL vs 0): 7.8 and 6.6
- light intensity, BTN-HRP1 (biotinylated HRP; Btn-HRP 1 ng/mL, total HRP 500 ng/mL): 757 and 995
- S2/S0 (biotinylated HRP; Btn-HRP 10 ng/mL vs 0): 171.6 and 216.2
- light intensity, BTN-HRP10 (biotinylated HRP; Btn-HRP 10 ng/mL, total HRP 500 ng/mL): 16,641 and 32,568
- S3/S0 (biotinylated HRP; Btn-HRP 100 ng/mL vs 0): 38064.9 and 30222.2
- light intensity, BTN-HRP100 (biotinylated HRP; Btn-HRP 100 ng/mL, total HRP 500 ng/mL): 3,692,291 and 4,553,473
- S4/S0 (biotinylated HRP; Btn-HRP 250 ng/mL vs 0): 62228.3 and 59176.1
- light intensity, BTN-HRP250 (biotinylated HRP; Btn-HRP 250 ng/mL, total HRP 500 ng/mL): 6,036,145 and 8,915,869
- effectiveness as SSIA in the model system (biotinylated HRP): demonstrating utility as SSIA
- RLU, w/SSIA (PSA; PSA 0.0 ng/mL): 1756 RLU
- S/S0, w/SSIA (PSA; PSA 0.0 ng/mL): 1.0
- RLU, w/SSIA (PSA; PSA 0.4 ng/mL): 4393 RLU
- S/S0, w/SSIA (PSA; PSA 0.4 ng/mL): 2.5
- RLU, w/SSIA (PSA; PSA 7.0 ng/mL): 57119 RLU
- S/S0, w/SSIA (PSA; PSA 7.0 ng/mL): 32.5
- RLU, w/SSIA (PSA; PSA 101.6 ng/mL): 604024 RLU
- S/S0, w/SSIA (PSA; PSA 101.6 ng/mL): 344.0
- Signal/Noise S1/S0 (TnI; [1]): 1.4
- Signal/Noise S1/S0 (TnI; [2]): 1.6
- Signal/Noise S1/S0 (TnI; [3]): 1.3
- Signal/Noise S2/S0 (TnI; [1]): 2.7
- Signal/Noise S2/S0 (TnI; [2]): 2.6
- Signal/Noise S2/S0 (TnI; [3]): 1.8
- Signal/Noise S3/S0 (TnI; [1]): 8.5
- Signal/Noise S3/S0 (TnI; [2]): 8.2
- Signal/Noise S3/S0 (TnI; [3]): 5.1
- Signal/Noise S4/S0 (TnI; [1]): 32.2
- Signal/Noise S4/S0 (TnI; [2]): 28.7
- Signal/Noise S4/S0 (TnI; [3]): 15.4
- Signal/Noise S5/S0 (TnI; [1]): 228.0
- Signal/Noise S5/S0 (TnI; [2]): 188.5
- Signal/Noise S5/S0 (TnI; [3]): 87.5
- Signal/Noise S6/S0 (TnI; [1]): 2196.3
- Signal/Noise S6/S0 (TnI; [2]): 1511.1
- Signal/Noise S6/S0 (TnI; [3]): 562.4
